biological target: WT Shaker K channel (Drosophila melanogaster, UniProt P08510, DEL6-46); assay: physchem; type: cell-based; conditions: 100 μM, pH 7.4, Xenopus oocytes
Text: A Shaker K channel is a Kv channel from the fruit fly Drosophila melanogaster. It is homologous to the human Kv1-type ion channels.
All animal experiments were approved by the local Animal Care and Use Committee and followed international guidelines. A modified Shaker H4 channel^30, with removed N-type inactivation (ShH4IR)^31, here called the wild type (WT) channel, was expressed in oocytes. In addition, a modified 3R Shaker K channel where two introduced positive charged arginines (M356R and A359R) in addition to one native arginine (R362) makes the channel more sensitive to DHA^16, was expressed in oocytes and in a CHO—K1 stable cell line.
African clawed frogs (Xenopus laevis) were anesthetized with 1.4 g/L ethyl 3-aminobenzoate methanesulfonate salt (tricaine). After an incision through the abdomen a batch of oocytes were removed. Clusters of oocytes were separated by incubation for ˜1 h in a Ca-free O—R2 solution (in mM: 82.5 NaCl, 2 KCl, 5 HEPES, and 1 MgCl2; pH adjusted to 7.4 by NaOH) containing Liberase Blendzyme. The oocytes were then incubated at 8° C. in a modified Barth's solution (MBS; in mM: 88 NaCl, 1 KCl, 2.4 NaHCO3, 15 HEPES, 0.33 Ca(NO3)2, 0.41 CaCl2, and 0.82 MgSO4; pH adjusted to 7.6 by NaOH) supplemented with penicillin (25 U/ml), streptomycin (25 μg/ml), and sodium pyruvate (2.5 mM) 2-24 hours before injection. Fifty nl of cRNA (50 pg) were injected into each oocyte using a Nanoject injector (Drummond Scientific, Broomall, Pa.). Injected oocytes were kept at 8° C. in MBS until one day before electrophysiological recordings, when they were incubated at 16° C. All chemicals were supplied from Sigma-Aldrich (Stockholm, Sweden) if not stated otherwise.
All manual electrophysiological recordings were performed at room temperature (20-23° C.), using a GeneClamp 500B amplifier (for oocytes) or a Axopatch 200B amplifier (for manual patch clamp of CHO—K1 cells and DRG neurons) and a Digidata 1440A digitizer and pClamp 10 software (all from Molecular Devices, Inc., Sunnyvale, Calif., USA). Compounds were dissolved to 100 mM in 99.5% EtOH and stored at −20° C. Compounds were diluted in extracellular solution to the desired test concentration.
The oocyte was placed in a bath surrounded by 1K extracellular solution that contained (in mM): 88 NaCl, 1 KCl, 15 HEPES, 0.4 CaCl2, and 0.8 MgCl2, pH adjusted to 7.4 by NaOH (reaching a sodium concentration of ˜100 mM). Control solution was added to the bath with a gravity driven perfusion system. Compound solution was added to the bath manually with a syringe. Two glass microelectrodes were inserted into the oocyte using micromanipulators. […] All channels were closed when the potential was clamped to −80 mV and this voltage was set as the holding potential. Currents were evoked from the holding potential of −80 mV by 100-ms long, 5-mV steps ranging from −80 up to +50 mV (WT) and +70 mV (3R).
Conductance GK(V) was calculated as GK(V)=[…], (Eq. 1) where IK is the average current from the steady-state phase at the end of each 100-ms pulse, V is the membrane voltage, and Vrev is the reversal potential for K^+, (set to −80 mV for the oocytes, and calculated to be −89 mV for the CHO—K1 cells).
G(V)=A/(1+exp((V1/2−V)/s))^n (Eq. 2) where A is amplitude of the curve, V is the absolute membrane voltage, V1/2 is the midpoint, s is the slope and n is an exponent set to 4^17. The compound-induced G(V) shift was determined at the 10% level of the maximum conductance in control solution^17. The compound-induced G(V) shift in CHO—K1 was quantified by subtracting the control V1/2 from the compound V1/2 when n was set to 1.
Data for concentration and pH dependent G(V) shifts (ΔV) in oocytes were fit with a dose-response equation ΔV=ΔVmax/(1+c1/2/c), (Eq. 3) where Δvmax is the maximal shift, c1/2 is half maximal effective concentration/pKa value and c is the concentration.

Sequence of WT Shaker K channel (P08510 other isoform, or with tags, fused parts or gaps DEL6-46): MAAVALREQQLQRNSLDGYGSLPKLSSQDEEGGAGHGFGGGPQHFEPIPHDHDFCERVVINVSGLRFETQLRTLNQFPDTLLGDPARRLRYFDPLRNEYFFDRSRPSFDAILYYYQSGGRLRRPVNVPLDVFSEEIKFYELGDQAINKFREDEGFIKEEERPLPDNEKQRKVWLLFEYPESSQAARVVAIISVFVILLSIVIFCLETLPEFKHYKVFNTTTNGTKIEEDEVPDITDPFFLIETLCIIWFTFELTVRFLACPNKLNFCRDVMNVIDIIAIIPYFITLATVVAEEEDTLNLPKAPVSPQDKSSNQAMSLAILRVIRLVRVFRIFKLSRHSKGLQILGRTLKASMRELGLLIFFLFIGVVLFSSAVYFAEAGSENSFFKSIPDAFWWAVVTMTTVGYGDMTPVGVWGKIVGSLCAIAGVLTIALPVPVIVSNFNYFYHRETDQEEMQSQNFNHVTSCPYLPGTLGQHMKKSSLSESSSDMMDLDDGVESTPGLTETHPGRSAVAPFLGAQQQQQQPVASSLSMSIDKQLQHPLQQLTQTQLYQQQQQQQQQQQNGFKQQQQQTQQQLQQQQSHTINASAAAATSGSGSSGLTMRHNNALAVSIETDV

SMILES	G(V) shift for WT
CC/C=C\C/C=C\C/C=C\C/C=C\C/C=C\C/C=C\CCC(=O)O [DHA]	−6.0 mV
C=C[C@@]1(C)CC[C@H]2C(=CC[C@@H]3[C@]2(C)CCC[C@@]3(C)C(=O)O)C1 [Iso-PiMA, isopimaric acid, reference compound]	much smaller effects on WT compared to the 3R Shaker K channel

same assay, conditions: Drosophila melanogaster; from pH dependence of G(V) shift, 100 μM

SMILES	pKa
CC(C)c1ccc2c(c1)CC[C@H]1[C@](C)(C(=O)O)CCC[C@]21C [DHAA, dehydroabietic acid]	7.2

biological target: 3R Shaker K channel (Drosophila melanogaster, UniProt P08510, A359R/M356R); assay: cell-based; type: cell-based; conditions: not given
Sequence (P08510 whole entry M356R/A359R): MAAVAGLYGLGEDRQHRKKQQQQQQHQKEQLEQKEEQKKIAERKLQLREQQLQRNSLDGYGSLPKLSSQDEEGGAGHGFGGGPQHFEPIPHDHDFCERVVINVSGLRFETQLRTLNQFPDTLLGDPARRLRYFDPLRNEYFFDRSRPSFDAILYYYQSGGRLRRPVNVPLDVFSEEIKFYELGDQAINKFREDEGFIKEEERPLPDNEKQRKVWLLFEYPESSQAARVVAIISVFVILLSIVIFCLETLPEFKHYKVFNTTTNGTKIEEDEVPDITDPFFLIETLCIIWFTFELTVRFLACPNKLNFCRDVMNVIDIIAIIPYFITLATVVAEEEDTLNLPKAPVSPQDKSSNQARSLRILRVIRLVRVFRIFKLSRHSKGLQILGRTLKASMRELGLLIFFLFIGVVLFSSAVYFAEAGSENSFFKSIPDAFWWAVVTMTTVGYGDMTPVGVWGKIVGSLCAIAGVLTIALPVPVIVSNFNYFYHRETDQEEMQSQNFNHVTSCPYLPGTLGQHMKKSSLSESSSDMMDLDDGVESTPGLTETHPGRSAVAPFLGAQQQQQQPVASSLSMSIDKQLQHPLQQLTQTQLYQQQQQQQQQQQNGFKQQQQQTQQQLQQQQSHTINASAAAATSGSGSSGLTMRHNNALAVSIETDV
Method in brief: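 Two-electrode voltage clamp at 20-23° C. in oocytes (also CHO-K1 stable line, manual patch clamp) expressing Shaker H4 lacking N-type inactivation; 1K extracellular solution, pH 7.4, holding −80 mV, 100-ms 5-mV steps up to +70 mV. Compound-induced G(V) shift taken at 10% of control Gmax (oocytes) or as V1/2 difference (CHO-K1).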

SMILES	Kd
CC(C)c1ccc2c(c1)CC[C@H]1[C@](C)(C(=O)O)CCC[C@]21C [DHAA, dehydroabietic acid]	89 µM

same assay, conditions: 100 μM, pH 7.4, Xenopus oocytes

SMILES	compound-induced G(V) shift (mean±SEM)
C=C[C@@]1(C)CC[C@H]2C(=CC[C@@H]3[C@]2(C)CCC[C@@]3(C)C(=O)O)C1 [Iso-PiMA, isopimaric acid, reference compound]	−15.9±1.8 mV

same assay, conditions: 100 μM, pH 7.4, same cells as representative traces

SMILES	ΔG(V) of representative G(V) curves (single examples)
C=C[C@@]1(C)CC[C@H]2C(=CC[C@@H]3[C@]2(C)CCC[C@@]3(C)C(=O)O)C1 [Iso-PiMA, isopimaric acid, reference compound]	−20.0 mV

same assay, conditions: Drosophila melanogaster; from pH dependence of G(V) shift, 100 μM

SMILES	pKa
CC(C)c1ccc2c(c1)CC[C@H]1[C@](C)(C(=O)O)CCC[C@]21C [DHAA, dehydroabietic acid]	7.3

same assay, conditions: Table 1; 100 μM, pH 7.4, Xenopus oocytes

SMILES	G(V) shift
CO/N=C1\C[C@H]2[C@](C)(C(=O)O)CCC[C@]2(C)c2ccc(C(C)C)c(I)c21 [Wu90]	−19.2 mV
C=CCO/N=C1\C[C@H]2[C@](C)(C(=O)O)CCC[C@]2(C)c2ccc(C(C)C)c(I)c21 [Wu91, (1R,4aS,10aR)-9-((allyloxy)imino)-8-iodo-7-isopropyl-1,4a-dimethyl-1,2,3,4,4a,9,10,10a-octahydrophenanthrene-1-carboxylic acid]	−12.5 mV
CC(C)c1cc(Cl)c2c(c1)CCC1C(C)(C(=O)O)CCCC21C (stereo not shown) [Wu100]	−2.7 mV
CC(C)c1cc(Cl)c2c(c1)C(O)CC1[C@](C)(C(=O)O)CCC[C@]21C (stereo partly shown) [Wu101]	−9.6 mV
CC(C)c1cc(Cl)c2c(c1)C(O)C[C@H]1[C@](C)(C(=O)O)CCC[C@]21C (stereo partly shown) [Wu102]	−2.8 mV
C=CCO/N=C1\C[C@H]2[C@](C)(C(=O)O)CCC[C@]2(C)c2c(Cl)cc(C(C)C)cc21 [Wu104, (1R,4aS,10aR)-9-((allyloxy)imino)-5-chloro-7-isopropyl-1,4a-dimethyl-1,2,3,4,4a,9,10,10a-octahydrophenanthrene-1-carboxylic acid]	−12.9 mV
CO/N=C1\C[C@H]2[C@](C)(C(=O)O)CCC[C@]2(C)c2c(Cl)cc(C(C)C)cc21 [Wu105, (1R,4aS,10aR)-5-chloro-7-isopropyl-9-(methoxyimino)-1,4a-dimethyl-1,2,3,4,4a,9,10,10a-octahydrophenanthrene-1-carboxylic acid]	−23.2 mV
CC(C)c1cc(Cl)c2c(c1O)CC[C@H]1[C@](C)(C(=O)O)CCC[C@]21C [Wu106]	−3.4 mV
CC(C)c1cc2c(cc1F)[C@@]1(C)CCC[C@@](C)(C(=O)O)[C@@H]1CC2 [Wu108, (1R,4aS,10aR)-6-fluoro-7-isopropyl-1,4a-dimethyl-1,2,3,4,4a,9,10,10a-octahydrophenanthrene-1-carboxylic acid]	−10.4 mV
CC(C)c1cc(Cl)c2c(c1Cl)CC[C@H]1[C@](C)(C(=O)O)CCC[C@]21C [Wu112]	−14.7 mV
CC(C)c1ccc2c(c1F)C(=O)C[C@H]1[C@](C)(C(=O)O)CCC[C@]21C [Wu113]	−3.6 mV
C=CCON=C1CC2C(C)(C(=O)O)CCCC2(C)c2c(Cl)cc(C(C)C)c(Cl)c21 (stereo not shown) [Wu114]	−13.3 mV
C[C@@]1(C(=O)O)CCC[C@]2(C)c3ccc(Cl)c(Cl)c3CCC12 (stereo partly drawn) [Wu115, (1R,4aS)-7,8-dichloro-1,4a-dimethyl-1,2,3,4,4a,9,10,10a-octahydrophenanthrene-1-carboxylic acid]	−24.2 mV
CC(C)c1cc2c(cc1F)[C@@]1(C)CCC[C@@](C)(C(=O)O)[C@@H]1CC2=O [Wu116]	−4.4 mV
C=Cc1cc2c(cc1C(C)C)C(=O)C[C@H]1[C@](C)(C(=O)O)CCC[C@]21C [Wu118]	0.2 mV
C=Cc1cc2c(cc1C(C)C)/C(=N/OC)CC1[C@](C)(C(=O)O)CCC[C@]21C (stereo partly drawn) [Wu119, (1R,4aS,E)-7-isopropyl-9-(methoxyimino)-1,4a-dimethyl-6-vinyl-1,2,3,4,4a,9,10,10a-octahydrophenanthrene-1-carboxylic acid]	−30.3 mV
C=CCO/N=C1\CC2[C@](C)(C(=O)O)CCC[C@]2(C)c2cc(C=C)c(C(C)C)cc21 (stereo partly drawn) [Wu120, (1R,4aS,E)-9-((allyloxy)imino)-7-isopropyl-1,4a-dimethyl-6-vinyl-1,2,3,4,4a,9,10,10a-octahydrophenanthrene-1-carboxylic acid]	−26.1 mV
CC(C)c1cc2c(cc1C1CC1)[C@@]1(C)CCC[C@@](C)(C(=O)O)C1CC2=O (stereo partly drawn) [Wu121, (1R,4aS)-6-cyclopropyl-7-isopropyl-1,4a-dimethyl-9-oxo-1,2,3,4,4a,9,10,10a-octahydrophenanthrene-1-carboxylic acid]	−6.7 mV
CO/N=C1\CC2[C@](C)(C(=O)O)CCC[C@]2(C)c2cc(C3CC3)c(C(C)C)cc21 (stereo partly drawn) [Wu122, (1R,4aS,E)-6-cyclopropyl-7-isopropyl-9-(methoxyimino)-1,4a-dimethyl-1,2,3,4,4a,9,10,10a-octahydrophenanthrene-1-carboxylic acid]	−32.3 mV
C=CCO/N=C1\CC2[C@](C)(C(=O)O)CCC[C@]2(C)c2cc(C3CC3)c(C(C)C)cc21 (stereo partly drawn) [Wu123, (1R,4aS,E)-9-((allyloxy)imino)-6-cyclopropyl-7-isopropyl-1,4a-dimethyl-1,2,3,4,4a,9,10,10a-octahydrophenanthrene-1-carboxylic acid]	−26.3 mV
CC(C)c1ccc2c(c1-c1ccccc1)CC[C@H]1[C@](C)(C(=O)O)CCC[C@]21C [Wu124]	−0.4 mV
CC(C)c1ccc2c(c1C1CC1)CC[C@H]1[C@](C)(C(=O)O)CCC[C@]21C [Wu127]	−9.6 mV
C[C@]1(C(=O)O)CCC[C@]2(C)c3ccccc3CCC12 (stereo partly drawn) [Wu129, (1S,4aS)-1,4a-dimethyl-1,2,3,4,4a,9,10,10a-octahydrophenanthrene-1-carboxylic acid]	−5.1 mV
C[C@@]1(C(=O)O)CCC[C@]2(C)c3c(Cl)c(Cl)c(Cl)c(Cl)c3CCC12 (stereo partly drawn) [Wu133, (1R,4aS)-5,6,7,8-tetrachloro-1,4a-dimethyl-1,2,3,4,4a,9,10,10a-octahydrophenanthrene-1-carboxylic acid]	−25.6 mV
C[C@]1(C(=O)O)CCC[C@]2(C)c3cc(Cl)ccc3CCC12 (stereo partly drawn) [Wu135, (1S,4aS)-6-chloro-1,4a-dimethyl-1,2,3,4,4a,9,10,10a-octahydrophenanthrene-1-carboxylic acid]	−12.0 mV
C[C@]1(C(=O)O)CCC[C@]2(C)c3ccc(Cl)cc3CCC12 (stereo partly drawn) [Wu136, (1S,4aS)-7-chloro-1,4a-dimethyl-1,2,3,4,4a,9,10,10a-octahydrophenanthrene-1-carboxylic acid]	−17.8 mV

same assay, conditions: representative traces at voltage giving 10% of maximum conductance in control; 100 μM, pH 7.4

SMILES	relative current amplitude
C=C[C@@]1(C)CC[C@H]2C(=CC[C@@H]3[C@]2(C)CCC[C@@]3(C)C(=O)O)C1 [Iso-PiMA, isopimaric acid, reference compound]	5.7 times

— patent US20180193294A1, “Dehydroabietic acid (DHAA) derivatives for use as ion channel openers” (priority 2015, published 2018)
